Reference: patent US11576326B2, “Wheat with new alleles of Rht-B1” (Commonwealth Scientific and Industrial Research Organisation, priority 2012, dated 2023)

What was measured:
[1] = system: barley endosperm half-grains; experiment: α-Amylase production by endosperm half-grains incubated with GA3 (Ceralpha procedure); settings: for α-Amylase at 42 h / α-Amylase at 72 h: GA3 (1 μM), 22° C.
Experimental: Endosperm half-grains were prepared and incubated with or without GA3 (1 μM) at 22° C. for 0, 42 or 72 h. To each sample, 1.5 mL of a solution of 10 mm CaCl2 was added, the half-grains were homogenised, and an aliquot of 1 mL was clarified by centrifugation (20,000 g for 5 min). The supernatant was analyzed for α-amylase activity using the Megazyme alpha-amylase (Ceralpha) procedure.
The production of α-amylase by endosperm half-grains of wild-type barley is dependent on the presence of an active GA. Therefore, monitoring α-amylase activity in the absence of an active GA provided a convenient measure of the extent of ‘basal’ GA signaling in the mutants. […] Among the overgrowth derivatives of Sln1d, the Sln1d.9 derivative was exceptional, accumulating very high levels of α-amylase at both 42 h and 72 h incubation, despite this line showing only a modest restoration of growth rate (Table 5).

[2] = system: barley seedlings (first leaf); experiment: Maximal daily leaf elongation rate (LERmax) of the first leaf of barley seedlings, with GA3; assay type: in vivo
From the text: The methods have been previously described (Chandler and Robertson, 1999). Curves were fitted to data points using a 4-parameter Hill equation.
The maximal daily rate of elongation (LERmax) achieved by the first leaf under standard conditions was a robust measure of GA responsiveness (Chandler and Robertson, 1999) and was therefore determined for all of the barley overgrowth lines and their parents (Table 5). […] Three overgrowth alleles (sln1m, sln1n and sln1s) were compared in both their original dwarfing genetic background as well as after back-crossing to the tall WT background. […] In a wild-type background, the overgrowth alleles tended to enhance growth rates.

increase in α-amylase activity over basal levels ([1]; 72 h incubation with GA3, control lines WT, grd2b): ~15 fold
α-Amylase at 42 h ([1]; line Him, genotype WT): 9.81 ± 0.86 Ceralpha units/grain
α-Amylase at 42 h ([1]; line M463, genotype grd2b): 7.20 ± 0.73 Ceralpha units/grain
α-Amylase at 72 h ([1]; line Him, genotype WT): 23.1 ± 2.8 Ceralpha units/grain
α-Amylase at 72 h ([1]; line M463, genotype grd2b): 18.9 ± 1.4 Ceralpha units/grain
Structure (SMILES): C=C1C[C@]23C[C@@]1(O)CC[C@H]2[C@@]12C=C[C@H](O)[C@@](C)(C(=O)O1)[C@H]2[C@@H]3C(=O)O [GA3]
LERmax ([2]; line Him (Himalaya), genotype WT): 52.3 ± 0.1 mm · d^−1
LERmax ([2]; line M463, genotype grd2b): 49.8 ± 0.8 mm · d^−1
LERmax ([2]; line M640, genotype Sln1d): 12.1 ± 0.3 mm · d^−1
LERmax ([2]; line M693, genotype gse1n): 35.3 ± 1.2 mm · d^−1
